{
  "source": "patent US20060009426A1",
  "about": "“Pharmaceutical compositions comprising calcitriol and a clobetasol propionate” (GALDERMA RESEARCH & DEVELOPMENT, S.N.C., priority 2002, published 2006)",
  "key": {"mouse ear oedema": {"tested_on": "mouse ear oedema", "experiment": "Ear oedema in the delayed hypersensitivity model of mice sensitized with a hapten (oxazolone)", "format": "in vivo, Balb/c mice", "protocol": "This test represents a reliable model for predicting the immunomodulatory properties of a product in a pathology of Th1 type such as psoriasis.\n(§1) 8-week-old Balb/c mice are pretreated on the abdominal skin from day 1 to day 6 using product A or B, or A and B diluted in ethanol. On day 6, the mice are actively sensitized by the topical application of 50 mg of oxazolone (oxa) in ethanol onto the abdominal skin. On day 11, an application of 20 mg of oxa in ethanol is performed on the right ear.\nStudent's t test was used for the statistical analysis of the results.\nThe thickness of the ear is measured, using a micrometer, on day 11 (just before the application of oxazolone to the presensitized mice) and after 24 hours, on day 12. The ear oedema is expressed as the difference between the measurement of the thickness of the ear between day 12 and day 11. The values of the thickness of the ear are analyzed statistically using Student's t test."}, "[1]": {"tested_on": "auricular ganglionic cells", "experiment": "Count of the auricular ganglionic cells in oxazolone-sensitized mice", "format": "in vivo, Balb/c mice", "conditions": "dose series, day 12, cells per animal", "protocol": "as §1\nOn day 12, one day after the repeated application of the oxa, the animals were sacrificed by cervical dislocation. The ganglionic cells are collected and combined by experimental group. A cell suspension is prepared and the cells are then counted. The number of cells is expressed per animal."}},
  "data": [
    {"smiles": "CCC(=O)O[C@]1(C(=O)CCl)[C@@H](C)C[C@H]2[C@@H]3CCC4=CC(=O)C=C[C@]4(C)[C@@]3(F)[C@@H](O)C[C@@]21C", "note": "[product B, clobetasol propionate]", "values": [
      {"measurement": "efficacy on inflammation (ear oedema, FIGS. 1 and 2)", "setting": "mouse ear oedema; clobetasol propionate alone at 0.01%, topical", "result": "moderate efficacy"},
      {"measurement": "effect of topical application on the intensity of mouse ear oedema (FIG. 1)", "setting": "mouse ear oedema; dose series, topical pretreatment day 1 to day 6, oedema = ear thickness day 12 minus day 11", "result": "dose-response effect"},
      {"measurement": "effect on the count of auricular ganglionic cells (FIG. 3)", "setting": "[1]", "result": "dose-response effect"}
    ]}
  ]
}
